{"source": "patent US20240092784A1", "about": "“CONDENSED HETEROCYCLIC COMPOUND” (NISSAN CHEMICAL CORPORATION, priority 2020, published 2024)", "target": "human SPR (Homo sapiens (Human), UniProt P35270)", "sequence (P35270 whole entry)": "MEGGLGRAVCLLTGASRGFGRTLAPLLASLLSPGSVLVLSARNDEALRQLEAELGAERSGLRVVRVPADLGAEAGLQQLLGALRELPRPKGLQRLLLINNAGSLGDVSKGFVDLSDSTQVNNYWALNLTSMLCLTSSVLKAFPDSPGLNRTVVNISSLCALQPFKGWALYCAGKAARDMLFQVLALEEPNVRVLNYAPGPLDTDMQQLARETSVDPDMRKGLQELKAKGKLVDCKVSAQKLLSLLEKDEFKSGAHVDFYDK", "test": "Evaluation Example 2: Measurement of human SPR inhibitory activity (seven concentrations, sepiapterin absorbance at 420 nm)", "format": "biochemical", "conditions": "sepiapterin absorbance, Table 41, read-out: concentration at 50% inhibition of human SPR (IC50)", "procedure,_shortened": "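His-tagged full-length human SPR (1-261) was expressed in E. coli and the tag removed. Enzyme at 150 ng/mL in 100 mM Tris-HCl pH 7.5/0.01% BSA was mixed with compound (0.14–100 nM, seven points), 120 μM sepiapterin and 160 μM NADPH, both as added-solution concentrations. After 240 min at room temperature, remaining sepiapterin was read at 420 nm to give percent inhibition.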", "data": [{"molecule": "CC(C)Cn1c(=O)c(C(=O)NC2CC2)c(O)n2ncc(/C=C/C(=O)N3CCC[C@H]3C(C)(C)O)c12", "note": "[Synthesis Example 730, (S,E)-N-Cyclopropyl-7-hydroxy-3-(3-(2-(2-hydroxypropan-2-yl)pyrrolidin-1-yl)-3-oxoprop-1-en-1-yl)-4-isobutyl-5-oxo-4,5-dihydropyrazolo[1,5-a]pyrimidine-6-carboxamide]", "values": [{"measurement": "IC50", "result": 1.26, "unit": "nM"}]}, {"molecule": "CC(C)Cn1c(=O)c(C(=O)NC2CC2)c(O)n2ncc(/C=C/C(=O)N3CCc4cc(F)ccc43)c12", "note": "[Synthesis Example 731, (E)-N-Cyclopropyl-3-(3-(5-fluoroindolin-1-yl)-3-oxoprop-1-en-1-yl)-7-hydroxy-4-isobutyl-5-oxo-4,5-dihydropyrazolo[1,5-a]pyrimidine-6-carboxamide]", "values": [{"measurement": "IC50", "result": 2.89, "unit": "nM"}]}, {"molecule": "CC(C)Cn1c(=O)c(C(=O)NC2CC2)c(O)n2ncc(/C=C/C(=O)N3CCc4cc(C#N)ccc43)c12", "note": "[Synthesis Example 732, (E)-3-(3-(5-Cyanoindolin-1-yl)-3-oxoprop-1-en-1-yl)-N-cyclopropyl-7-hydroxy-4-isobutyl-5-oxo-4,5-dihydropyrazolo[1,5-a]pyrimidine-6-carboxamide]", "values": [{"measurement": "IC50", "result": 1.7, "unit": "nM"}]}, {"molecule": "CC(C)Cn1c(=O)c(C(=O)NC2CC2)c(O)n2ncc(/C=C/C(=O)N3CCCC34CCN(C(=O)OC(C)(C)C)CC4)c12", "note": "[Synthesis Example 733, Tert-butyl (E)-1-(3-(6-(cyclopropylcarbamoyl)-7-hydroxy-4-isobutyl-5-oxo-4,5-dihydropyrazolo[1,5-a]pyrimidin-3-yl)acryloyl)-1,8-diazaspiro[4.5]decane-8-carboxylate]", "values": [{"measurement": "IC50", "result": 2.16, "unit": "nM"}]}, {"molecule": "CC(C)Cn1c(=O)c(C(=O)NC2CC2)c(O)n2ncc(/C=C/C(=O)N3CC(C#N)C3)c12", "note": "[Synthesis Example 734, (E)-3-(3-(3-Cyanoazetidin-1-yl)-3-oxoprop-1-en-1-yl)-N-cyclopropyl-7-hydroxy-4-isobutyl-5-oxo-4,5-dihydropyrazolo[1,5-a]pyrimidine-6-carboxamide]", "values": [{"measurement": "IC50", "result": 0.73, "unit": "nM"}]}, {"molecule": "CC(C)Cn1c(=O)c(C(=O)NC2CC2)c(O)n2ncc(/C=C/C(=O)N3CCc4cc(Br)ccc43)c12", "note": "[Synthesis Example 735, (E)-3-(3-(5-Bromoindolin-1-yl)-3-oxoprop-1-en-1-yl)-N-cyclopropyl-7-hydroxy-4-isobutyl-5-oxo-4,5-dihydropyrazolo[1,5-a]pyrimidine-6-carboxamide]", "values": [{"measurement": "IC50", "result": 7.3, "unit": "nM"}]}, {"molecule": "CC(C)Cn1c(=O)c(C(=O)NC2CC2)c(O)n2ncc(/C=C/C(=O)N3CCCC34CCN(C)CC4)c12", "note": "[Synthesis Example 736, (E)-N-Cyclopropyl-7-hydroxy-4-isobutyl-3-(3-(8-methyl-1,8-diazaspiro[4.5]decan-1-yl)-3-oxoprop-1-en-1-yl)-5-oxo-4,5-dihydropyrazolo[1,5-a]pyrimidine-6-carboxamide]", "values": [{"measurement": "IC50", "result": 1.07, "unit": "nM"}]}, {"molecule": "CC(=O)N1CCC2(CCCN2C(=O)/C=C/c2cnn3c(O)c(C(=O)NC4CC4)c(=O)n(CC(C)C)c23)CC1", "note": "[Synthesis Example 737, (E)-3-(3-(8-Acetyl-1,8-diazaspiro[4.5]decan-1-yl)-3-oxoprop-1-en-1-yl)-N-cyclopropyl-7-hydroxy-4-isobutyl-5-oxo-4,5-dihydropyrazolo[1,5-a]pyrimidine-6-carboxamide]", "values": [{"measurement": "IC50", "result": 1.9, "unit": "nM"}]}, {"molecule": "CC(C)Cn1c(=O)c(C(=O)NC2CC2)c(O)n2ncc(/C=C/C(=O)N3CCOc4ccncc43)c12", "note": "[Synthesis Example 738, (E)-N-Cyclopropyl-3-(3-(2,3-dihydro-4H-pyrido[4,3-b][1,4]oxazin-4-yl)-3-oxoprop-1-en-1-yl)-7-hydroxy-4-isobutyl-5-oxo-4,5-dihydropyrazolo[1,5-a]pyrimidine-6-carboxamide]", "values": [{"measurement": "IC50", "result": 1.39, "unit": "nM"}]}, {"molecule": "CC(C)Cn1c(=O)c(C(=O)NC2CC2)c(O)n2ncc(/C=C/C(=O)N3CCOc4ccccc43)c12", "note": "[Synthesis Example 739, (E)-N-Cyclopropyl-3-(3-(2,3-dihydro-4H-benz[b][1,4]oxazin-4-yl)-3-oxoprop-1-en-1-yl)-7-hydroxy-4-isobutyl-5-oxo-4,5-dihydropyrazolo[1,5-a]pyrimidine-6-carboxamide]", "values": [{"measurement": "IC50", "result": 1.54, "unit": "nM"}]}, {"molecule": "CC(C)Cn1c(=O)c(C(=O)NC2CC2)c(O)n2ncc(/C=C/C(=O)N3CCc4cnccc43)c12", "note": "[Synthesis Example 740, (E)-N-Cyclopropyl-3-(3-(2,3-dihydro-1H-pyrrolo[3,2-c]pyridin-1-yl)-3-oxoprop-1-en-1-yl)-7-hydroxy-4-isobutyl-5-oxo-4,5-dihydropyrazolo[1,5-a]pyrimidine-6-carboxamide]", "values": [{"measurement": "IC50", "result": 1.81, "unit": "nM"}]}, {"molecule": "CC(C)Cn1c(=O)c(C(=O)NC2CC2)c(O)n2ncc(/C=C/C(=O)N3C[C@@H](C)OC[C@@H]3C)c12", "note": "[Synthesis Example 741, N-Cyclopropyl-3-((E)-3-((2R,5S)-2,5-dimethylmorpholino)-3-oxoprop-1-en-1-yl)-7-hydroxy-4-isobutyl-5-oxo-4,5-dihydropyrazolo[1,5-a]pyrimidine-6-carboxamide]", "values": [{"measurement": "IC50", "result": 0.98, "unit": "nM"}]}, {"molecule": "CC(C)Cn1c(=O)c(C(=O)NC2CC2)c(O)n2ncc(/C=C/C(=O)N3CCc4ccncc43)c12", "note": "[Synthesis Example 742, (E)-N-Cyclopropyl-3-(3-(2,3-dihydro-1H-pyrrolo[2,3-c]pyridin-1-yl)-3-oxoprop-1-en-1-yl)-7-hydroxy-4-isobutyl-5-oxo-4,5-dihydropyrazolo[1,5-a]pyrimidine-6-carboxamide]", "values": [{"measurement": "IC50", "result": 1.59, "unit": "nM"}]}, {"molecule": "CC(C)Cn1c(=O)c(C(=O)NC2CC2)c(O)n2ncc(/C=C/C(=O)N3CC[C@@H](C(C)(C)O)C3)c12", "note": "[Synthesis Example 743, (R,E)-N-Cyclopropyl-7-hydroxy-3-(3-(3-(2-hydroxypropan-2-yl)pyrrolidin-1-yl)-3-oxoprop-1-en-1-yl)-4-isobutyl-5-oxo-4,5-dihydropyrazolo[1,5-a]pyrimidine-6-carboxamide]", "values": [{"measurement": "IC50", "result": 1.33, "unit": "nM"}]}, {"molecule": "CC(C)Cn1c(=O)c(C(=O)NC2CC2)c(O)n2ncc(/C=C/C(=O)N3CCN(CC4CC(F)(F)C4)C[C@@H]3C)c12", "note": "[Synthesis Example 744, (S,E)-N-Cyclopropyl-3-(3-(4-((3,3-difluorocyclobutyl)methyl)-2-methylpiperazin-1-yl)-3-oxoprop-1-en-1-yl)-7-hydroxy-4-isobutyl-5-oxo-4,5-dihydropyrazolo[1,5-a]pyrimidine-6-carboxamide]", "values": [{"measurement": "IC50", "result": 1.57, "unit": "nM"}]}, {"molecule": "CC(C)Cn1c(=O)c(C(=O)NC2CC2)c(O)n2ncc(/C=C/C(=O)N3CCN(CC4CC(F)(F)C4)C[C@H]3C)c12", "note": "[Synthesis Example 745, (R,E)-N-Cyclopropyl-3-(3-(4-((3,3-difluorocyclobutyl)methyl)-2-methylpiperazin-1-yl)-3-oxoprop-1-en-1-yl)-7-hydroxy-4-isobutyl-5-oxo-4,5-dihydropyrazolo[1,5-a]pyrimidine-6-carboxamide]", "values": [{"measurement": "IC50", "result": 1.85, "unit": "nM"}]}, {"molecule": "CC(C)Cn1c(=O)c(C(=O)NC2CC2)c(O)n2ncc(/C=C/C(=O)N3CCCC34CCN(C(C)C)CC4)c12", "note": "[Synthesis Example 746, (E)-N-Cyclopropyl-7-hydroxy-4-isobutyl-3-(3-(8-isopropyl-1,8-diazaspiro[4.5]decan-1-yl)-3-oxoprop-1-en-1-yl)-5-oxo-4,5-dihydropyrazolo[1,5-a]pyrimidine-6-carboxamide]", "values": [{"measurement": "IC50", "result": 1.54, "unit": "nM"}]}, {"molecule": "Cc1nn2c(O)c(C(=O)NC3CC3)c(=O)n(CC(C)(C)F)c2c1/C=C/C(=O)N1CCOCC1", "note": "[Synthesis Example 747, (E)-N-Cyclopropyl-4-(2-fluoro-2-methylpropyl)-7-hydroxy-2-methyl-3-(3-morpholino-3-oxoprop-1-en-1-yl)-5-oxo-4,5-dihydropyrazolo[1,5-a]pyrimidine-6-carboxamide]", "values": [{"measurement": "IC50", "result": 0.74, "unit": "nM"}]}, {"molecule": "CC(C)Cn1c(=O)c(C(=O)NC2CC2)c(O)n2ncc(/C=C/C(=O)N3CCC[C@@H]3c3cccnc3)c12", "note": "[Synthesis Example 748, (R,E)-N-Cyclopropyl-7-hydroxy-4-isobutyl-5-oxo-3-(3-oxo-3-(2-(pyridin-3-yl)pyrrolidin-1-yl)prop-1-en-1-yl)-4,5-dihydropyrazolo[1,5-a]pyrimidine-6-carboxamide]", "values": [{"measurement": "IC50", "result": 1.01, "unit": "nM"}]}, {"molecule": "Cc1nn2c(O)c(C(=O)NC3CC3)c(=O)n(CC(C)C)c2c1/C=C/C(=O)N1CCC[C@@H]1C#N", "note": "[Synthesis Example 749, (R,E)-3-(3-(2-Cyanopyrrolidin-1-yl)-3-oxoprop-1-en-1-yl)-N-cyclopropyl-7-hydroxy-4-isobutyl-2-methyl-5-oxo-4,5-dihydropyrazolo[1,5-a]pyrimidine-6-carboxamide]", "values": [{"measurement": "IC50", "result": 0.93, "unit": "nM"}]}, {"molecule": "COCCN(C)C(=O)/C=C/c1c(C)nn2c(O)c(C(=O)NC3CC3)c(=O)n(CC(C)C)c12", "note": "[Synthesis Example 750, (E)-N-Cyclopropyl-7-hydroxy-4-isobutyl-3-(3-((2-methoxyethyl)(methyl)amino)-3-oxoprop-1-en-1-yl)-2-methyl-5-oxo-4,5-dihydropyrazolo[1,5-a]pyrimidine-6-carboxamide]", "values": [{"measurement": "IC50", "result": 0.96, "unit": "nM"}]}, {"molecule": "CCN1CCN(C(=O)/C=C/c2c(C)nn3c(O)c(C(=O)NC4CC4)c(=O)n(CC(C)C)c23)[C@H](C)C1", "note": "[Synthesis Example 751, (R,E)-N-Cyclopropyl-3-(3-(4-ethyl-2-methylpiperazin-1-yl)-3-oxoprop-1-en-1-yl)-7-hydroxy-4-isobutyl-2-methyl-5-oxo-4,5-dihydropyrazolo[1,5-a]pyrimidine-6-carboxamide]", "values": [{"measurement": "IC50", "result": 1.34, "unit": "nM"}]}, {"molecule": "Cc1nn2c(O)c(C(=O)NC3CC3)c(=O)n(CC(C)C)c2c1/C=C/C(=O)N1CCc2cncnc21", "note": "[Synthesis Example 752, (E)-N-Cyclopropyl-3-(3-(5,6-dihydro-7H-pyrrolo[2,3-d]pyrimidin-7-yl)-3-oxoprop-1-en-1-yl)-7-hydroxy-4-isobutyl-2-methyl-5-oxo-4,5-dihydropyrazolo[1,5-a]pyrimidine-6-carboxamide]", "values": [{"measurement": "IC50", "result": 0.88, "unit": "nM"}]}, {"molecule": "Cc1nn2c(O)c(C(=O)NC3CC3)c(=O)n(CC(C)C)c2c1/C=C/C(=O)N1C[C@@H]2C[C@H]1CO2", "note": "[Synthesis Example 753, 3-((E)-3-((1S,4S)-2-Oxa-5-azabicyclo[2.2.1]heptan-5-yl)-3-oxoprop-1-en-1-yl)-N-cyclopropyl-7-hydroxy-4-isobutyl-2-methyl-5-oxo-4,5-dihydropyrazolo[1,5-a]pyrimidine-6-carboxamide]", "values": [{"measurement": "IC50", "result": 0.48, "unit": "nM"}]}]}
